Laboratory results from publication PMC10838102 (Journal of Experimental Pharmacology, 2024).

Assays:
[1] = with piperine; cited from earlier work
[2] = concurrent administration of 2 g of curcumin and 5 mg of piperine; cited from earlier work
[3] = test system: Caco-2 cell monolayer; experiment: Caco-2 cell monolayer permeability assay with LC-MS/MS analysis; details: 2-hour permeability experiment

Row | Papp classification [3] | Compound | increase of bioavailability of curcumin [1] | increase in curcumin's bioavailability [2]
1 |  | COc1cc(/C=C/C(=O)CC(=O)/C=C/c2ccc(O)c(OC)c2)ccc1O [curcumin] | 20 folds | approximately a twofold increase
2 | high | CC(C)NCC(O)COc1cccc2ccccc12 (stereo not drawn) [propranolol] |  | 
